Data published in ChEMBL document CHEMBL1130520, “Solid phase synthesis of C-terminal carbohydrate modified enkephalins” (Bioorg Med Chem Lett, 1997).
Starred links: 1 amine or outer side, 2 acyl side, 3 side chain; linkers in the order of their positions; H or OH if unused. Non-standard residues stand in square brackets, D forms with d. Residues, ends and D or L forms follow the SMILES beside them. *: point of attachment. X1 = NC(=O)[C@@H]1O[C@@H](N*)[C@@H](O)[C@@H](O)[C@@H]1O; X3 = O=C(O)[C@@H]1O[C@@H](N*)[C@@H](O)[C@@H](O)[C@@H]1O; X2 = O=C(O)C1OC(NC(=O)C2OC(N*)C(O)C(O)C2O)C(O)C(O)C1O; hMet = CSCCC[C@H](N)C(=O)O; CO = O=C([*:1])[*:2]

Tests used:
Type in all cases: functional
Cavia porcellus [1] = species: Cavia porcellus; assay: Compound was tested in vitro for inhibiting electrically stimulated muscle contractions in guinea pig ileum (GPI)
Mus musculus [2] = species: Mus musculus; assay: Compound was tested in vitro for inhibiting electrically stimulated muscle contractions in mouse vas deferens (MVD); settings: Muscle tissue
Mus musculus [3] = species: Mus musculus; assay: Compound was tested for relative potency with respect to the compound Enkephalinamide in MVD assay
Cavia porcellus [4] = species: Cavia porcellus; assay: Compound was tested for relative potency with respect to the compound Enkephalinamide in GPI assay

| Compound | IC50 (Cavia porcellus [1]) [nM] | IC50 (Mus musculus [2]) [nM] | Relative potency (Mus musculus [3]) | Relative potency (Cavia porcellus [4]) |
| --- | --- | --- | --- | --- |
| CC(C)C[C@H](NC(=O)[C@H](Cc1ccccc1)NC(=O)CNC(=O)CNC(=O)[C@@H](N)Cc1ccc(O)cc1)C(N)=O (single isomer, unassigned) [[LEU5]ENKEPHALIN] | 540 | 280 | 1 | 1 |
| CC(C)C[C@H](NC(=O)N[C@@H]1O[C@@H](C(N)=O)[C@@H](O)[C@H](O)[C@@H]1O)C(=O)N[C@@H](Cc1ccccc1)C(=O)NCC(=O)NCC(=O)N[C@@H](Cc1ccc(O)cc1)C(=O)O ({X1-CO}-LFGGY-OH) | 3860 | 110 | 0.51 | 0.14 |
| CC(C)C[C@H](NC(=O)NC1OC(C(=O)NC2OC(C(=O)O)C(O)C(O)C2O)C(O)C(O)C1O)C(=O)N[C@@H](Cc1ccccc1)C(=O)NCC(=O)NCC(=O)N[C@@H](Cc1ccc(O)cc1)C(=O)O (stereo not given in full) ({X2-CO}-LFGGY-OH) | 1040 | 550 | 2.56 | 0.52 |

The next lines start with results.

| IC50 (Cavia porcellus [1]) [nM] | IC50 (Mus musculus [2]) [nM] | Compound | Relative potency (Mus musculus [3]) | Relative potency (Cavia porcellus [4]) |
| --- | --- | --- | --- | --- |
| 200 | 8 | CC(C)C[C@H](NC(=O)N[C@@H]1O[C@@H](C(=O)O)[C@@H](O)[C@H](O)[C@@H]1O)C(=O)N[C@@H](Cc1ccccc1)C(=O)NCC(=O)NCC(=O)N[C@@H](Cc1ccc(O)cc1)C(=O)O ({X3-CO}-LFGGY-OH) | 35.39 | 2.74 |
| 110 | 70 | CSCCC[C@H](NC(=O)N[C@@H]1O[C@@H](C(=O)O)[C@@H](O)[C@H](O)[C@@H]1O)C(=O)N[C@@H](Cc1ccccc1)C(=O)NCC(=O)NCC(=O)N[C@@H](Cc1ccc(O)cc1)C(=O)O ({X3-CO}-[hMet]FGGY-OH) | 3.8 | 4.54 |
